`*/C(=C(/c1ccc(*)cc1)c1ccc(Oc2ccccc2)cc1)c1ccc(Oc2ccccc2)cc1` (repeat unit) gave a glass transition temperature of 163.00 °C.

As to `*C(=O)c1ccc2c(c1)C(=O)N(c1cccc(OCCOCCOc3cccc(N4C(=O)c5ccc(*)cc5C4=O)c3)c1)C2=O` (repeat unit), the glass transition temperature amounted to 155.00 °C. With `*C(=O)c1cccc(C(=O)c2ccc3c(c2)C(=O)N(c2cccc(N4C(=O)c5ccc(*)cc5C4=O)c2)C3=O)c1` (repeat unit) the figure was 259.50 °C. As for `*Oc1ccc(C(C)(C)c2cc(Cl)c(OC(*)=O)c(Cl)c2)cc1` (repeat unit), the glass transition temperature was 186.00 °C. Next, `*Oc1ccc(C(C)(C)c2ccc(OC(*)=O)c(C(C)C)c2)cc1C(C)C` (repeat unit): 80.00 °C. Regarding `*Oc1ccc(C(C)(C)c2ccc(OC(*)=O)c(CC)c2)cc1CC` (repeat unit), the glass transition temperature came out at 65.00 °C. Next, `*Oc1ccc(C(C)(C)c2ccc(OC(=O)Nc3cccc(P(=O)(c4ccccc4)c4cccc(NC(*)=O)c4)c3)cc2)cc1` (repeat unit): 62.00 °C.

`*Oc1ccc(C(C)(C)c2ccc(OC(=O)OCCCCCOC(*)=O)cc2)cc1` (repeat unit) returned a glass transition temperature of 49.50 °C. As to `*Oc1ccc(C(C)(C)c2ccc(OC(=O)OCCCOC(*)=O)cc2)cc1` (repeat unit), the glass transition temperature amounted to 68.10 °C.

For the compound `*Oc1ccc(C(C)(C)c2ccc(OC(=O)OCCN(CCOC(*)=O)c3ccc4[nH]c5ccccc5c4c3)cc2)cc1` (repeat unit), the glass transition temperature is 90.00 °C.

`*Oc1ccc(C(C)(C)c2ccc(OC(=O)SCCCCCCSC(*)=O)cc2)cc1` (repeat unit) gave a glass transition temperature of 58.00 °C.

For the compound `*Oc1ccc(C(C)(C)c2ccc(OC(=O)c3ccc(C(*)=O)cc3)c(C(C)CC)c2)cc1C(C)CC` (repeat unit), the glass transition temperature was 90.00 °C. Next, `*Oc1ccc(C(C)(C)c2ccc(OC(=O)c3ccc(C(=O)c4ccc(C(*)=O)cc4)cc3)cc2)cc1` (repeat unit): 194.00 °C; `*Oc1ccc(C(C)(C)c2ccc(OC(=O)c3ccc([Si](C)(C)c4ccc(C(*)=O)cc4)cc3)cc2)cc1` (repeat unit): 180.00 °C. With `*Oc1ccc(C(C)(C)c2ccc(OC(=O)c3ccc([Si](c4ccccc4)(c4ccccc4)c4ccc(C(*)=O)cc4)cc3)cc2)cc1` (repeat unit), the glass transition temperature worked out at 295.00 °C. With `*Oc1ccc(C(C)(CC)c2ccc(OC(*)=O)c(Cl)c2)cc1Cl` (repeat unit) the figure was 142.00 °C.

With `*Oc1ccc(C(C)(c2ccccc2)c2ccc(OC(*)=O)cc2)cc1` (repeat unit), the glass transition temperature worked out at 179.00 °C.

In turn, `*Oc1ccc(C(CCC)(CCC)c2ccc(OC(*)=O)c(C)c2)cc1C` (repeat unit) displayed a glass transition temperature of 101.00 °C. For the compound `*Oc1ccc(C(CCCC)(CCCC)c2ccc(OC(*)=O)cc2)cc1` (repeat unit), the glass transition temperature is 113.00 °C.

The compound `*Oc1ccc(C2(c3ccc(OC(*)=O)c(C)c3)CC3CC2C2CCCC32)cc1C` (repeat unit) yielded a glass transition temperature of 217.00 °C.

Turning to `*Oc1ccc2c(c1)C(C)(c1ccc(OC(*)=O)cc1)CC2(C)C` (repeat unit), the glass transition temperature was 201.70 °C.

`*Oc1cccc(OC(=O)Oc2ccc(C(C)(C)c3ccc(OC(*)=O)cc3)cc2)c1` (repeat unit) returned a glass transition temperature of 83.10 °C. With `*c1ccc(C(=O)Oc2ccc(C(C)(C)c3ccc(OC(=O)c4ccc(N5C(=O)CC(SCCOCCSC6CC(=O)N(*)C6=O)C5=O)cc4)cc3)cc2)cc1` (repeat unit) the figure was 143.00 °C; with `*c1ccc(OC(=O)c2ccc(C(=O)Oc3ccc(C4(*)NC(=O)c5ccccc54)cc3)cc2)cc1` (repeat unit), 327.00 °C; with `*c1ccc(OC(=O)c2ccc(C(=O)Oc3ccc(C4(*)c5ccccc5C(=O)N4C)cc3)cc2)cc1` (repeat unit), 282.00 °C.

(Values after the PolyMetriX glass transition set.)
